The text below walks through data of US20100298300A1, “TRIAZOLOPYRAZINE COMPOUNDS USEFUL FOR THE TREATMENT OF DEGENERATIVE & INFLAMMATORY DISEASES” (priority 2006, published 2010).

pEC50, pIC50: −log10 of the molar value. A value given as a limit tells only on which side of the number the result lay.

Usually pIC50 stands for the negative decadic logarithm of the IC50, by convention in mol/L. High values mean a low IC50, low ones a high IC50. One may read the pEC50 as the EC50 on a negative log10 scale, so that one unit is a factor of ten.

For one assay, the target named is T1, MAPKAPK5 (Homo sapiens, UniProt Q8IW41).
T1 sequence (Q8IW41 1-471 isoform Q8IW41-2): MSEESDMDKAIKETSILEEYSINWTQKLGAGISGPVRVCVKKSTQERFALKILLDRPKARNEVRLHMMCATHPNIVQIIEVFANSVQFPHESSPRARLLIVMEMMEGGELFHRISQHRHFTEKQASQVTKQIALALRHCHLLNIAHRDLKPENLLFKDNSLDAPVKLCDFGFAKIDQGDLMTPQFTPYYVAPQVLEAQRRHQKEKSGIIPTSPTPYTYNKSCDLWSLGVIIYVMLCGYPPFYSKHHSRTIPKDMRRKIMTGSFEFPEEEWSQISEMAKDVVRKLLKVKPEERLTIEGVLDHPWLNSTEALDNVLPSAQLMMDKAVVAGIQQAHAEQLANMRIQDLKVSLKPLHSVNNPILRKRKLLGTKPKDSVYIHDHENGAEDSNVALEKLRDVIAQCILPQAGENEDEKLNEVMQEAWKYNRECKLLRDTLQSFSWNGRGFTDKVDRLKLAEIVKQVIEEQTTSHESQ
Put plainly: MAPKAP-K5 assay (FlashPlate kinase assay).

For assay [1], the system named is MMP1 expression by activated primary synovial fibroblasts. Put plainly: 'MMP assay': MMP1 expression by complex trigger activated synovial fibroblasts (MMP1 ELISA). The assay is classed as cell-based. The note with it: Homo sapiens, Fibroblast, RASFs, complex trigger, 48 hrs, MMP1 ELISA.
Assay [2] concerns TNFα release by human PBMCs. Put plainly: Cytokine release by LPS stimulated human PBMCs (TNFα ELISA). The format is cell-based. The note with it: PBMC, 24 h, Table 5, LPS 1 μg/mL. Here is the method: For the assay PBMCs are seeded at 2.5E6 cells/mL in 160 μL in 96-well plates (Nunc). Serial dilution of the test compounds are made first in DMSO (Sigma) and then diluted 50-fold in M199 medium (Gibco) containing 1% heat-inactivated FBS. Compounds are further 1/10 diluted in the assay plates to obtain final DMSO concentration of 0.2%. Cells are preincubated with the compounds for 1 hr at 37° C., 5% CO2. Then, cells are stimulated with LPS (Escherichia coli serotype 026:B6, Cat. No. L2654, Sigma) that is added in a volume of 20 μL to a final concentration of 1 μg/mL and cells are further cultured for 24 hr. The plates are centrifuged and the supernatant is collected and stored at −80° C. until analysis of appropriate dilutions in ELISAs.
After 4 hr incubation at RT, blocking buffer is removed and plates are washed once with PBST (1×PBS with 0.05% Tween-20 (Sigma)). Then, 40 μL of sample is transferred to the ELISA plates and plates are incubated at 4° C. […] After 2 h of incubation at RT, plates are washed as described above and 35 μL/well of a 1/2000 dilution of streptavidin-HRP conjugate (Cat. No. SNN2004, Biosource) in buffer D is added. After 45 min, plates are washed as described above and incubated for 5 min with 50 μL/well BM Chemiluminescence ELISA Substrate POD (Roche). Readout is performed on the Luminoscan Ascent Luminometer (Labsystems) with an integration time of 100 msec delivering raw data (RLU: relative luminescence units). The following controls are included in the experiments, a maximal signal control, in which the cells are activated by LPS but only the 0.2% DMSO vehicle (and thus no compound) is added. […] A minimal signal control is also included in these experiments. Here, cells are not triggered. […] Where compounds are tested at 8 concentrations (1/3 serial dilution), EC50-values can be calculated by curve fitting of the means of the PIN data achieved for a compound at each test concentration.
In general terms: An ELISA detects its analyte on a solid surface through an enzyme-linked reagent.

Method for MAPKAPK5: MAPKAP-K5 reactions are performed in FlashPlate format using 0.1 or 0.2 μCi 33P-ATP; 0.6 μM ATP; 1 mU MAPKAP-K5; 3 μM MAPKAP-K5 peptide substrate, incubated at room temperature for 30 minutes.
The MAPKAP-K5 kinase reaction is performed in a 384 well polypropylene plate (Matrix Technologies) and then transferred to a streptavidin-coated 384 well flashplate (Perkin-Elmer).
To wells containing 2 μL test compound or standard inhibitor, 13 μL Enzyme mix or diluent are added using a Hydra (Robbins Scientific).
Reactions are started by addition of 10 μL of [2,5×] substrate cocktail using a Multidrop (Thermo-Labsystems), to give final concentrations in the assay of:
Plates are incubated at room temperature for 30 minutes.
Reactions are terminated by the addition of 25 μL EDTA (50 mM) to each well using a Micro-fill (Biotek).
Reactions are transferred to a streptavidin-coated flashplate using a Zymark robotic system. Plates are incubated for 60 minutes at room temperature.
All wells are washed 3 times with 100 μl phosphate buffered saline using a Tecan plate washer.
Radioactivity is determined by scintillation counting of the flashplate (empty wells) on a Packard TopCount.
Enzyme Mix: • Enzyme • 50 mM Tris Hcl (pH 7.5) • 0.1 mM EGTA • 2 mM DTT • 1 mg/mL BSA
Reaction Buffer: • 50 mM Tris Hcl (pH 7.5) • 0.1 mM EGTA • 10 mM Magnesium acetate • 2 mM DTT

For the compound `CN1CCN(c2ccc(Nc3ncc(-c4cn[nH]c4)n4ncnc34)cc2)CC1` [Compound 2], the pIC50 against MAPKAPK5 is < 6.00. The negative-log EC50 (pEC50) in assay [1] (Table 3) and in assay [2] was < 6.00 each time.
Consider `CN1CCN(c2ccc(Nc3ncc(-c4ccc(C(N)=O)cc4)n4ncnc34)cc2)CC1` [Compound 3], for which, on MAPKAPK5, the negative-log IC50 (pIC50) is < 6.00. The pEC50 in assay [1] (Table 3) was 6.30 to 7.00; in assay [2], < 6.00.
As to `CN1CCN(c2ccc(Nc3ncc(-c4cc[nH]c(=O)c4)n4ncnc34)cc2)CC1` [Compound 4, 4-(8-(4-(4-methylpiperazin-1-yl)phenylamino)-[1,2,4]triazolo[1,5a]pyrazin-5-yl)pyridin-2(1H)-one], the negative logarithm of the IC50 (pIC50) on MAPKAPK5 is < 6.00. Moreover, the negative logarithm of the EC50 (pEC50) in assay [1] (Table 3) and in assay [2] was < 6.00 in each case.
With `NC(=O)c1ccc(-c2cnc(Nc3ccc(N4CCOCC4)cc3)c3ncnn23)cc1` [Compound 5], the pIC50 on MAPKAPK5 was < 6.00. Further, the negative-log EC50 (pEC50) was 6.30 to 7.00 in assay [1] (Table 3) and < 6.00 in assay [2].
In turn, `CN1CCN(c2ccc(Nc3ncc(-c4csc(C(N)=O)c4)n4ncnc34)cc2)CC1` [Compound 6, 4-{8-[4-(4-Methyl-piperazin-1-yl)-phenylamino]-[1,2,4]triazolo[1,5-a]pyrazin-5-yl}-thiophene-2-carboxylic acid amide] had a pIC50 on MAPKAPK5 of 7.00 to 9.00. The pEC50 in assay [1] (Table 3) is 6.30 to 7.00; in assay [2] it was < 6.00.
On the same counts, the results for `CN1CCN(c2ccc(Nc3ncc(-c4ccc(C(N)=O)c(F)c4)n4ncnc34)cc2)CC1` [Compound 7] are < 6.00, < 6.00 and < 6.00.
On the same counts, the results for `CN1CCN(c2ccc(Nc3ncc(-c4ccc(C(N)=O)cc4F)n4ncnc34)cc2)CC1` [Compound 8] are < 6.00, 6.00 to 6.30 and < 6.00.
As to `CCOC(=O)CN(Cc1ccccc1)C(=O)c1ccc(Nc2ncc(-c3cn[nH]c3)n3ncnc23)cc1` [Compound 154], the negative-log IC50 (pIC50) against MAPKAPK5 was < 6.00. Besides, the pEC50 in assay [1] (Table 4) is < 6.00.
Regarding `CC(C)NC(=O)CN1CCN(C(=O)c2ccc(Nc3ncc(-c4cn[nH]c4)n4ncnc34)cc2)CC1` [Compound 155], the negative-log IC50 (pIC50) against MAPKAPK5 was 6.00 to 6.30. For the same compound, the negative logarithm of the EC50 (pEC50) in assay [1] (Table 4) is < 6.00.
For `COCCN(C)C(=O)c1ccc(Nc2ncc(-c3cn[nH]c3)n3ncnc23)cc1` [Compound 156], in that order: < 6.00 and < 6.00.
For `CCN(CCOC)C(=O)c1ccc(Nc2ncc(-c3cn[nH]c3)n3ncnc23)cc1` [Compound 157], in that order: < 6.00 and < 6.00.
On the same counts, the results for `O=C(NCC1CCCO1)c1ccc(Nc2ncc(-c3cn[nH]c3)n3ncnc23)cc1` (centres unmarked) [Compound 158] are 6.00 to 6.30 and < 6.00.
The compound `O=C(c1ccc(Nc2ncc(-c3cn[nH]c3)n3ncnc23)cc1)N1CC=CCC1` [Compound 159] gave a negative logarithm of the IC50 (pIC50) at MAPKAPK5 of 6.00 to 6.30. In addition, the negative logarithm of the EC50 (pEC50) in assay [1] (Table 4) is < 6.00.
`CSCCNC(=O)c1ccc(Nc2ncc(-c3cn[nH]c3)n3ncnc23)cc1` [Compound 160] had a pIC50 against MAPKAPK5 of 6.00 to 6.30. Also, in assay [1] (Table 4), the pEC50 was < 6.00.
As to `CC1(C)OCC(CNC(=O)c2ccc(Nc3ncc(-c4cn[nH]c4)n4ncnc34)cc2)O1` (centres unmarked) [Compound 161], on MAPKAPK5, the pIC50 was 6.00 to 6.30. In assay [1] (Table 4), the pEC50 is < 6.00.
In the case of `CC(C)N(CCNC(=O)c1ccc(Nc2ncc(-c3cn[nH]c3)n3ncnc23)cc1)C(C)C` [Compound 162], the pIC50 against MAPKAPK5 was 6.00 to 6.30. Also, the pEC50 in assay [1] (Table 4) is < 6.00.
On the same counts, the results for `CC(C)CNC(=O)c1ccc(Nc2ncc(-c3cn[nH]c3)n3ncnc23)cc1` [Compound 164] are < 6.00 and < 6.00.
On the same counts, the results for `O=C(c1ccc(Nc2ncc(-c3cn[nH]c3)n3ncnc23)cc1)N1CCC(N2CCCCC2)CC1` [Compound 165] are < 6.00 and < 6.00.
On the same counts, the results for `O=C(NCCO)c1ccc(Nc2ncc(-c3cn[nH]c3)n3ncnc23)cc1` [Compound 166] are 6.00 to 6.30 and < 6.00.
In turn, `NC(=O)c1cc(-c2cnc(Nc3ccc(NC(=O)Cc4ccccc4)nc3)c3ncnn23)cs1` [Compound 167, 4-[8-(6-Phenylacetylamino-pyridin-3-ylamino)-[1,2,4]triazolo[1,5-a]pyrazin-5-yl]-thiophene-2-carboxylic acid amide] gave a pIC50 against MAPKAPK5 of 6.00 to 6.30. For the same compound, in assay [1] (Table 4), the pEC50 was < 6.00.
As to `Nc1nccn1-c1ncc(-c2ccc3c(c2)CNC3=O)n2ncnc12` [Compound 168], the negative logarithm of the IC50 (pIC50) against MAPKAPK5 is < 6.00. The negative-log EC50 (pEC50) in assay [1] (Table 3) was < 6.00.
As for `CC(C)N1CCN(c2ccc(Nc3ncc(-c4cc5c(cn4)C(=O)NC5)n4ncnc34)cc2)CC1` [Compound 173], at MAPKAPK5, the negative-log IC50 (pIC50) is < 6.00. In assay [1] (Table 3), the pEC50 is < 6.00.
As to `O=C1CN(c2ccc(Nc3ncc(-c4cn[nH]c4)n4ncnc34)cc2)CCN1` [Compound 177], the negative logarithm of the IC50 (pIC50) against MAPKAPK5 is < 6.00. Also, the pEC50 in assay [1] (Table 3) is < 6.00.
Turning to `CC(C)(C)NC(=O)N1CCC(Nc2ncc(-c3ccc4c(c3)CNC4=O)n3ncnc23)CC1` [Compound 178], on MAPKAPK5, the pIC50 is 6.00 to 6.30. Also, the pEC50 in assay [1] (Table 3) was < 6.00.
On the same counts, the results for `O=C1NCc2cc(-c3cnc(NC4CCC4)c4ncnn34)ccc21` [Compound 182] are 6.30 to 7.00 and < 6.00.
In turn, `CC(C)(C)N1CCN(c2ccc(Nc3ncc(-c4coc(C(N)=O)c4)n4ncnc34)cc2)CC1` [Compound 183] gave a pIC50 against MAPKAPK5 of 7.00 to 9.00. The negative logarithm of the EC50 (pEC50) in assay [1] (Table 3) is < 6.00.
On the same counts, the results for `O=C1NCc2cc(-c3cnc(NCC4CCCCC4)c4ncnn34)ccc21` [Compound 184] are 6.30 to 7.00 and < 6.00.
Turning to `O=C1NCc2cc(-c3cnc(NC4CCNCC4)c4ncnn34)ccc21` [Compound 185], the negative-log IC50 (pIC50) on MAPKAPK5 was < 6.00. Besides, the pEC50 in assay [1] (Table 3) was < 6.00.
As for `O=C(NCc1cc(-c2ccccc2)on1)c1ccc(Nc2ncc(-c3cn[nH]c3)n3ncnc23)cc1` [Compound 192], at MAPKAPK5, the pIC50 is < 6.00. In addition, the negative logarithm of the EC50 (pEC50) in assay [1] (Table 4) is 6.30 to 7.00.
On the same counts, the results for `O=C(Nc1ccc(N2CCOCC2)nc1)c1ccc(Nc2ncc(-c3ccc4c(c3)CNC4=O)n3ncnc23)cc1` [Compound 193] are < 6.00 and < 6.00.
On the same counts, the results for `O=C(Nc1ccc(N2CCOCC2)nc1)c1ccc(Nc2ncc(-c3cn[nH]c3)n3ncnc23)cc1` [Compound 194] are < 6.00 and 6.00 to 6.30.
For `O=C(N[C@@H]1CCN(Cc2ccccc2)C1)c1ccc(Nc2ncc(-c3ccc4c(c3)CNC4=O)n3ncnc23)cc1` [Compound 195], in that order: 6.30 to 7.00 and < 6.00.
In turn, `O=C(N[C@H]1CCN(Cc2ccccc2)C1)c1ccc(Nc2ncc(-c3ccc4c(c3)CNC4=O)n3ncnc23)cc1` [Compound 196] gave a negative logarithm of the IC50 (pIC50) at MAPKAPK5 of 6.30 to 7.00. In addition, in assay [1] (Table 4), the pEC50 is < 6.00.
Consider `O=C(NCc1cc(-c2ccccc2)on1)c1ccc(Nc2ncc(-c3ccc4c(c3)CNC4=O)n3ncnc23)cc1` [Compound 197], for which the pIC50 on MAPKAPK5 was < 6.00. The pEC50 in assay [1] (Table 4) is < 6.00.
Consider `O=C(Nc1cn(Cc2ccccc2)cn1)c1ccc(Nc2ncc(-c3cn[nH]c3)n3ncnc23)cc1` [Compound 198], for which the pIC50 against MAPKAPK5 was < 6.00. For the same compound, the pEC50 in assay [1] (Table 4) was < 6.00.
